Measured values: patent US11519014B2, “Specific substrate of an ALDH isoenzyme” (ADVANCED BIODESIGN, priority 2016, dated 2022)

Tests used:
[1] = molecular target: T1, ALDH1A1 (Homo sapiens, UniProt P00352); assay: Double localization of resorufin propionate and ALDH1A1 by fluorescent microscopy (NCI-H522 cells); assay type: cell-based; details: results not shown
T1 construct: purchased R&D Systems 5869-DH
T1 sequence (P00352 1-501): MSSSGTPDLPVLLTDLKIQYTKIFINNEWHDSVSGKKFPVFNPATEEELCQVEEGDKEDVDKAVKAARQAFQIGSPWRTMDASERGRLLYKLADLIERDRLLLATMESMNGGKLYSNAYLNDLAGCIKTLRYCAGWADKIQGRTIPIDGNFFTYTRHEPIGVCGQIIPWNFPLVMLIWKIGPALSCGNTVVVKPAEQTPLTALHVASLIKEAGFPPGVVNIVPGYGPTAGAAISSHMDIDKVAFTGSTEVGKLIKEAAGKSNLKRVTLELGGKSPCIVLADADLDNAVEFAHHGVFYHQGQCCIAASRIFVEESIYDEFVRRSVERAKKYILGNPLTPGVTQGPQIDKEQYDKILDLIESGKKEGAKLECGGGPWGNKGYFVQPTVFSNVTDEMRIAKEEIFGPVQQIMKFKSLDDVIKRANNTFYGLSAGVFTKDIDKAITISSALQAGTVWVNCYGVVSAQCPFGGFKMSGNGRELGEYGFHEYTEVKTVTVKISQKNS
Procedure: In a 24-well plate with microscope glasses previously washed with ethanol and then placed in the wells, the NCI-H522 cells were added at a cell concentration of 50.000 cells/well and then incubated in RPMI-1640 medium supplemented with L-Glutamine, Penicillin, Streptomycin and 10% Fetal Calf Serum overnight at +37° C. with a 5% CO2 atmosphere. The next day, the culture medium was changed with either DIMATE (5 μM) or the treatment vehicle and incubated for 6 hours. The cells were incubated for 30 minutes with culture medium supplemented with 10 μM of resorufin propionate, were then washed with cold PBS and then fixed with paraformaldehyde for 15 minutes at 37° C. The cells were permeabilized and saturated with PBS; 3% bovine albumin; 0.3% triton for 1 hour. The incubation was carried out with the anti-ALDH1A1 antibody (R&D System, MAB5869) for 1 hour at +37° C., then with an anti-mouse antibody coupled to fluorescein for 1 hour at room temperature in the dark, with PBS washes between the two steps. 3 washes with PBS were carried out then the microscopy glasses were mounted with an anti-decoloration support supplemented with DAPI. The cells were then observed under a microscope.

[2] = system: ALDH1; assay: Identification of positive ALDH1 cells by flow cytometry via resorufin propionate; assay type: cell-based; details: 15 μM Dimate, 5 hours, FIG. 4
Procedure: In a 60 mm Petri dish, 500.000 cells were incubated with RPMI-1640 medium supplemented with L-Glutamine, Penicillin, Streptomycin and 10% Fetal Calf Serum overnight at +37° C. with 5% atmosphere. CO2. For the negative control, the cells were taken up in medium supplemented with 15 μM of dimethyl ampal thiolester (Dimate), a specific inhibitor of ALDH1 and 3, then incubated for 5 hours at 37° C., 5% CO2. After trypsination, the cells were taken up in supplemented RPMI medium and centrifuged at 800 g for 5 minutes. The cell pellet was then taken up in fresh supplemented medium containing 10 μM of resorufin propionate, and then incubated for 1 hour in a polycarbonate tube at 37° C., 5% CO2. After incubation, the cells were then centrifuged and then washed in cold PBSx1 and finally taken up in […] of cold PBSx1. The solution was then analyzed by flow cytometry ([…] or red laser).

[3] = system: ALDH1; assay: ALDH1 activity by resorufin propionate after treatment with inhibitors of ALDH 1 and 3 (HL-60 cells); assay type: cell-based; details: inhibitor 8 μM, 6 hours, substrate 10 μM, one hour, P<0.001, FIG. 3
Procedure: In a 96-well plate, the HL-60 cells were inoculated at a concentration of 50.000 cells/well in RPMI-1640 medium without phenol red supplemented with L-Glutamine, Penicillin, Streptomycin and 10% Fetal Calf Serum (FCS) supplemented with dimethyl ampalthiolester (DIMATE) a specific inhibitor ALDH 1 and 3, morpholino ampal thiolester (MATE) a specific inhibitor of ALDH3, at concentrations of 8 μM respectively. After incubation for 6 hours, the substrates of the different ALDHs respectively resorufine propionate for ALDH1 and resorufin 4-diethylaminobenzoate for ALDH3, were added to a final concentration of 10 μM and then incubated for one hour at +37° C. The plate was then read using an Appliskan fluorescent plate reader (ex=560 nm, Em=600). The data were expressed in relative fluorescence units produced by an equal number of cells.

[4] = molecular target: T1, ALDH1A1; assay: Determination of the Km and Vmax of resorufine propionate with purified ALDH1A1; assay type: biochemical; details: column ALDH1; relative to ALDH1
Procedure: (§1) In 50 μl of 0.1 M phosphate buffer pH6.00; 0.2 M KCl; 2 mM NADP+; 2 mM EDTA, a range of resorufine propionate was made: 250, 200, 150, 125, 100, 90, 80 and 70 μM and 0 μM. 50 μL of recombinant enzyme solution at 2.5 mU/well ALDH1A1 (R&D Sytems, 5869-DH), ALDH2 (abcam, ab87415) and ALDH3A1 (R&D Sytems, 6705-DH) was added. The incubation was carried out for 30 minutes at +37° C. and then the fluorescence reading was made (Em: 590 nm, Ex: 530 nm). The data were then converted to resorufin released (nM·min-1.μg^−1) and Km and Vmax were calculated using the Michaelis-Menten equation using GraphPad Prism 5.0.

[5] = molecular target: T2, ALDH2 (Homo sapiens, UniProt P05091); assay: Determination of the Km and Vmax of resorufine propionate with purified ALDH2; assay type: biochemical; details: column ALDH2; relative to ALDH1
T2 construct: purchased abcam ab87415
T2 sequence (P05091 18-517): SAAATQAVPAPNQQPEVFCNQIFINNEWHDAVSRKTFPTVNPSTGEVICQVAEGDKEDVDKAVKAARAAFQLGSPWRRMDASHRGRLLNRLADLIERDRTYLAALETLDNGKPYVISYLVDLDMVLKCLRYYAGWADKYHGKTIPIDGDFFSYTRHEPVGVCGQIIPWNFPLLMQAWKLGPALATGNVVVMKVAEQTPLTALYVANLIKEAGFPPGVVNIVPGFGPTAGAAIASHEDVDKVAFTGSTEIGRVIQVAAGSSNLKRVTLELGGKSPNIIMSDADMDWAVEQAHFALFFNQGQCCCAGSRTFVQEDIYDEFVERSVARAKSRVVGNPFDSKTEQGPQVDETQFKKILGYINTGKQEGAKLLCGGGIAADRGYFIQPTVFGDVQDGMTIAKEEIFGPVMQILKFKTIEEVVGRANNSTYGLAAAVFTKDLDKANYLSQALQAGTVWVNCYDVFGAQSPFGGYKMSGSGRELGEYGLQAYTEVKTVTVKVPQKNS
Procedure: as §1

[6] = molecular target: T3, ALDH3A1 (Homo sapiens, UniProt P30838); assay: Determination of the Km and Vmax of resorufine propionate with purified ALDH3A1; assay type: biochemical; details: column ALDH3
T3 construct: purchased R&D Systems 6705-DH
T3 sequence (P30838 1-453): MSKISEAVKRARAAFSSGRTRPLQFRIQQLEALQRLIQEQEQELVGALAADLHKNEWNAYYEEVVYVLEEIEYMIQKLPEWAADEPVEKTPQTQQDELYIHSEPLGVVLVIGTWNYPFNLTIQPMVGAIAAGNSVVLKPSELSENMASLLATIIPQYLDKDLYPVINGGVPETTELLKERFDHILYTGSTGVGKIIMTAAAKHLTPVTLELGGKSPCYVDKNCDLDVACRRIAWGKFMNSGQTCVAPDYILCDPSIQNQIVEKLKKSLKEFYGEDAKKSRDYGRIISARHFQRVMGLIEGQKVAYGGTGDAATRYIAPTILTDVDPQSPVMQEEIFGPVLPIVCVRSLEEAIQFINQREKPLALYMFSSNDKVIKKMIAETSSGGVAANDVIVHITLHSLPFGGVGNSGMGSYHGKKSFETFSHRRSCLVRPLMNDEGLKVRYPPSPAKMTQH
Procedure: as §1

[7] = molecular target: T1, ALDH1A1; assay: ALDH1 activity by resorufine propionate after treatment with interfering RNA ALDH1A1 (NCI-H522 cells); assay type: cell-based; details: 100 nM of siRNA, 10 μM resorufin propionate, P<0.05, FIG. 2
Procedure: In a 60 mm Petri dish, the NCI-H522 cells were seeded at a concentration of 250.000 cells/plate, corresponding to a confluence of 40-50%, in RPMI-1640 medium supplemented with L-Glutamine, Penicillin, Streptomycin and 10% Fetal Calf Serum (FCS) overnight at 37° C. The next day, the medium was replaced by the same medium without FCS. The transfection solution was then prepared by diluting 100 nM in 500 μL of culture medium without FCS, to which 500 μL of culture medium without FCS supplemented with 3 μL of lipofectamine 2000 (Invitrogen) was added. The solution was then incubated for 30 minutes at room temperature and then drops added to the cell solution. The mixture was incubated at +37° C. in a 5% CO2 incubator for 8 hours. […] The specific activity of ALDH1A1 was then assayed by fluorescence.
The cells were inoculated at a concentration of 1×10^4 cells/well in a 96-well plate in 100 μl in RPMI-1640 medium without phenol red supplemented with L-Glutamine, Penicillin, Streptomycin and 10% Fetal Calf Serum (FCS) supplemented with 10 μM resorufin propionate. The cells were then incubated for 1 hour and then the plate was read using an Appliskan fluorescent plate reader (ex=560 nm, Em=600). The data were expressed in relative fluorescence units produced by an equal number of cells.

[8] = substrate: CCC(=O)Oc1ccc2nc3ccc(=O)cc-3oc2c1; assay: Determination of the Km and Vmax of resorufine propionate with purified ALDH1A1; assay type: biochemical; details: other: column ALDH1; substrate range 70-250 μM; pH 6.0; 37.0 °C
Procedure: as §1

[9] = substrate: CCC(=O)Oc1ccc2nc3ccc(=O)cc-3oc2c1; assay: Determination of the Km and Vmax of resorufine propionate with purified ALDH2; assay type: biochemical; details: other: column ALDH2; substrate range 70-250 μM; pH 6.0; 37.0 °C
Procedure: as §1

In the case of `CCCCCCCC(=O)Oc1ccc2c(c1)Oc1cc(OC(=O)CCCCCCC)ccc1C21OC(=O)c2ccccc21` [Fluorescein octanoate, Fluorescein dioctanoate], the melting point is reported as 50 to 52 °C.

With `CCCCCC(=O)Oc1ccc2c(c1)Oc1cc(OC(=O)CCCCC)ccc1C21OC(=O)c2ccccc21` [Fluorescein di-hexanoate] the melting point was 103 to 105 °C.

With `CSC(=O)C#CC(C)(C)N(C)C` [DIMATE, dimethyl ampalthiolester] the “conversion of resorufin propionate to resorufin, fluorescent microscopy” value ([1]; DIMATE 5 μM, 6 hours) was “inhibited”, the “positive ALDH1 cells (living cells), flow cytometry” value ([2]; 10 μM resorufin propionate) was “positive ALDH1 cell inhibition is observed” and the viability ([2]; Calcein-AM) was “decrease in viability”. For the same molecule, the “inhibition of fluorescence (resorufin propionate signal)” value [3] was “significant inhibition of fluorescence”.

For `CCC(=O)Oc1ccc2nc3ccc(=O)cc-3oc2c1` [resorufine propionate, Resorufine propionate], the “colocalization of fluorescent signal with ALDH1A1” value ([1]; 10 μM resorufin propionate, 30 minutes) was “can be colocalized with ALDH1A1”, the Increase [4] was 1 and the Increase [5] was 0.54. For the same molecule, the Increase ([6]; relative to ALDH1) was 0.17, the Km ([6]; substrate range 70-250 μM) was 445 µM and the “signal resorufine propionate after ALDH1A1 siRNA” value [7] was “decrease significant”.

In the case of `CC1=C(/C=C/C(C)=C/C=C/C(C)=C/C(=O)Oc2ccc3c(c2)Oc2cc(OC(=O)/C=C(C)/C=C/C=C(C)/C=C/C4=C(C)CCCC4(C)C)ccc2C32OC(=O)c3ccccc32)C(C)(C)CCC1` (centres unmarked) [Fluorescein di-retinoate], the melting point is reported as 145 to 150 °C (dec.).

B1: ALDH1A1 (Homo sapiens) (protein)
chain: MSSSGTPDLPVLLTDLKIQYTKIFINNEWHDSVSGKKFPVFNPATEEELCQVEEGDKEDVDKAVKAARQAFQIGSPWRTMDASERGRLLYKLADLIERDRLLLATMESMNGGKLYSNAYLNDLAGCIKTLRYCAGWADKIQGRTIPIDGNFFTYTRHEPIGVCGQIIPWNFPLVMLIWKIGPALSCGNTVVVKPAEQTPLTALHVASLIKEAGFPPGVVNIVPGYGPTAGAAISSHMDIDKVAFTGSTEVGKLIKEAAGKSNLKRVTLELGGKSPCIVLADADLDNAVEFAHHGVFYHQGQCCIAASRIFVEESIYDEFVRRSVERAKKYILGNPLTPGVTQGPQIDKEQYDKILDLIESGKKEGAKLECGGGPWGNKGYFVQPTVFSNVTDEMRIAKEEIFGPVQQIMKFKSLDDVIKRANNTFYGLSAGVFTKDIDKAITISSALQAGTVWVNCYGVVSAQCPFGGFKMSGNGRELGEYGFHEYTEVKTVTVKISQKNS
notes: purchased R&D Systems 5869-DH
In the case of B1, the Km [8] is reported as 115 µM and the Vmax [8] is reported as 12132 nM/min/µg.

B2: ALDH2 (Homo sapiens) (protein)
chain: SAAATQAVPAPNQQPEVFCNQIFINNEWHDAVSRKTFPTVNPSTGEVICQVAEGDKEDVDKAVKAARAAFQLGSPWRRMDASHRGRLLNRLADLIERDRTYLAALETLDNGKPYVISYLVDLDMVLKCLRYYAGWADKYHGKTIPIDGDFFSYTRHEPVGVCGQIIPWNFPLLMQAWKLGPALATGNVVVMKVAEQTPLTALYVANLIKEAGFPPGVVNIVPGFGPTAGAAIASHEDVDKVAFTGSTEIGRVIQVAAGSSNLKRVTLELGGKSPNIIMSDADMDWAVEQAHFALFFNQGQCCCAGSRTFVQEDIYDEFVERSVARAKSRVVGNPFDSKTEQGPQVDETQFKKILGYINTGKQEGAKLLCGGGIAADRGYFIQPTVFGDVQDGMTIAKEEIFGPVMQILKFKTIEEVVGRANNSTYGLAAAVFTKDLDKANYLSQALQAGTVWVNCYDVFGAQSPFGGYKMSGSGRELGEYGLQAYTEVKTVTVKVPQKNS
notes: purchased abcam ab87415
In the case of B2, the Km [9] is reported as 116 µM and the Vmax [9] is reported as 6693 nM/min/µg.
